Assay results from patent US9586931B2 (Merck Sharp & Dohme Corp., priority 2012, dated 2017).

These compounds were tested against T1, recombinant human GST-Syk (Homo sapiens, UniProt P43405) (assay: Homogeneous Time-Resolved Fluorescence (HTRF) assay for the recombinant human Syk enzyme). Conditions: recombinant human GST-Syk 5 pM, ATP 25 μM, 10-dose titration 10 μM to 0.508 nM; read-out: rhSYK Activity IC50.
T1 construct: purchased Carna Biosciences 08-176
Assay type: biochemical
Summary of the method: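 Detection used time-resolved fluorescence 30 min after adding a quench mix (40 mM EDTA, 15 mM Tris pH 7.5, 0.01% Tween 20) containing 2 nM Europium anti-pTyr antibody and 70 nM streptavidin-APC. This followed 45 min of room-temperature peptide phosphorylation by recombinant GST-tagged human Syk.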

Compound | IC50 [nM]
Cc1cc(Nc2cc(C(F)(F)F)ccn2)nc(-c2cn(C(C)C(=O)NCCc3cccc4ccccc34)nn2)c1 (stereo not drawn) [Example 1.44, 2-[4-(4-methyl-6-{[4-(trifluoromethyl)pyridin-2-yl]amino}pyridin-2-yl)-1H-1,2,3-triazol-1-yl]-N-(2-naphthalen-1-ylethyl)propanamide] | 626
Cc1cc(Nc2cc(C(F)(F)F)ccn2)nc(-c2cn(C3CNCC3O)nn2)c1 (stereo not drawn) [Example 4.15, 4-[4-(4-methyl-6-{[4-(trifluoromethyl)pyridin-2-yl]amino}pyridin-2-yl)-1H-1,2,3-triazol-1-yl]pyrrolidin-3-ol] | 32.9
Cc1cc(Nc2cc(C(F)(F)F)ccn2)nc(-c2cn(C/C=C/c3ccccc3)nn2)c1 [Example 5.35, 4-methyl-6-{1-[(2E)-3-phenylprop-2-en-1-yl]-1H-1,2,3-triazol-4-yl}-N-[4-(trifluoromethyl)pyridin-2-yl]pyridin-2-amine] | 300
Cc1cc(Nc2nccc(C(F)F)n2)cc(-c2cn(Cc3ccc(=O)[nH]c3)nn2)c1 [Example 33, 5-((4-(3-((4-(Difluoromethyl)pyrimidin-2-yl)amino)-5-methylphenyl)-1H-1,2,3-triazol-1-yl)methyl)pyridin-2(3H)-one] | 3.7
Cc1cc(Nc2nccc(OC(C)C)n2)cc(-c2cn(CC(C)(O)C(C)(C)O)nn2)c1 (stereo not drawn) [Example 21.13, 2,3-dimethyl-1-[4-(3-methyl-5-{[4-(1-methylethoxy)pyrimidin-2-yl]amino}phenyl)-1H-1,2,3-triazol-1-yl]butane-2,3-diol] | 39.6
Cc1cc(Nc2cc(C(F)F)ccn2)nc(-c2cn(CC3CNC(=O)O3)nn2)c1 (single isomer, unassigned) [Example 7.13, 5-((4-(6-((4-(difluoromethyl)pyridin-2-yl)amino)-4-methylpyridin-2-yl)-1H-1,2,3-triazol-1-yl)methyl)oxazolidin-2-one] | 2
Cc1cc(Nc2cc(C(F)(F)F)ccn2)nc(-c2cn(C(C)C(=O)NC3CCS(=O)(=O)C3)nn2)c1 (racemic) [Example 1.2, N-(1,1-Dioxidotetrahydrothiophen-3-yl)-2-[4-(4-methyl-6-{[4-(trifluoromethyl)pyridin-2-yl]amino}pyridin-2-yl)-1H-1,2,3-triazol-1-yl]propanamide (racemic)] | 42.8
Cc1cc(Nc2ncc(F)c(C(F)F)n2)cc(-c2cn(CC3OC(=O)NC34CC4)nn2)c1 (single isomer, unassigned) [Example 7.33, 7-{[4-(3-{[4-(difluoromethyl)-5-fluoropyrimidin-2-yl]amino}-5-methylphenyl)-1H-1,2,3-triazol-1-yl]methyl}-6-oxa-4-azaspiro[2.4]heptan-5-one] | 11.1
Cc1cc(Nc2cc(OCCO)ccn2)nc(-c2cn(C(C)c3ccc(C(=O)O)cc3)nn2)c1 (stereo not drawn) [Example 2.4, 4-{1-[4-(6-{[4-(2-hydroxyethoxy)pyridin-2-yl]amino}-4-methylpyridin-2-yl)-1H-1,2,3-triazol-1-yl]ethyl}benzoic acid] | 28.1
Cc1cc(Nc2cc(C(C)O)ccn2)nc(-c2cn(C(C)c3ccc(C(=O)O)cc3)nn2)c1 (stereo not drawn) [Example 2.3, 4-{1-[4-(6-{[4-(1-hydroxyethyl)pyridin-2-yl]amino}-4-methylpyridin-2-yl)-1H-1,2,3-triazol-1-yl]ethyl}benzoic acid] | 21.1
Cc1cc(Nc2cc(C(F)(F)F)ccn2)nc(-c2cn(Cc3c[nH]cn3)nn2)c1 [Example 5.108, 6-[1-(1H-imidazol-4-ylmethyl)-1H-1,2,3-triazol-4-yl]-4-methyl-N-[4-(trifluoromethyl)pyridin-2-yl]pyridin-2-amine] | 2.5
Cc1cc(Nc2cc(C)c(F)cn2)nc(-c2cn(CC(C)(O)C(C)(C)O)nn2)c1 (stereo not drawn) [Example 21.22, 1-(4-{6-[(5-fluoro-4-methylpyridin-2-yl)amino]-4-methylpyridin-2-yl}-1H-1,2,3-triazol-1-yl)-2,3-dimethylbutane-2,3-diol] | 85.8
Cc1cc(Nc2nccc(C(F)(F)F)n2)cc(-n2cc(C3(O)CCC(C(=O)O)C(C)(C)C3)nn2)c1 (stereo not drawn) [Example 15.1, 4-hydroxy-2,2-dimethyl-4-[1-(3-methyl-5-{[4-(trifluoromethyl)pyrimidin-2-yl]amino}phenyl)-1H-1,2,3-triazol-4-yl]cyclohexanecarboxylic acid] | 6.5
Cc1cc(Nc2nccc(OC(C)C)n2)cc(-c2cn(CC(C)(O)C(C)(C)O)nn2)c1 (stereo not drawn) [Example 21.31, 2,3-dimethyl-1-[4-(3-methyl-5-{[4-(1-methylethoxy)pyrimidin-2-yl]amino}phenyl)-1H-1,2,3-triazol-1-yl]butane-2,3-diol] | 21.1
Cc1cc(Nc2cc(C(F)(F)F)ccn2)nc(-c2cn(C(C(=O)O)c3ccccc3)nn2)c1 (stereo not drawn) [Example 3.11, [4-(4-methyl-6-{[4-(trifluoromethyl)pyridin-2-yl]amino}pyridin-2-yl)-1H-1,2,3-triazol-1-yl](phenyl)acetic acid] | 5.1
Cc1cc(Nc2nccc(C(F)F)n2)cc(-c2cn(CC3(O)CNC(=O)C3)nn2)c1 (single isomer, unassigned) [Example 31.2, 4-((4-(3-((4-(Difluoromethyl)pyrimidin-2-yl)amino)-5-methylphenyl)-1H-1,2,3-triazol-1-yl)methyl)-4-hydroxypyrrolidin-2-one] | 4.7
Cc1cc(Nc2nccc(C(F)F)n2)cc(-c2cn(C(C)C(C)(O)CO)nn2)c1 (single isomer, unassigned) [Example 30.1, 3-(4-(3-((4-(Difluoromethyl)pyrimidin-2-yl)amino)-5-methylphenyl)-1H-1,2,3-triazol-1-yl)-2-methylbutane-1,2-diol] | 12.4
4-{1-[4-(6-{[4-(cyclohexyloxy)pyridin-2-yl]amino}-4-methylpyridin-2-yl)-1H-1,2,3-triazol-1-yl]ethyl}benzoic acid [Example 2.7] | 16.7
Cc1cc(Nc2cc(C(F)F)ccn2)nc(-c2cn(CC3OC(=O)NC3C)nn2)c1 (single isomer, unassigned) [Example 7.15, 5-((4-(6-((4-(difluoromethyl)pyridin-2-yl)amino)-4-methylpyridin-2-yl)-1H-1,2,3-triazol-1-yl)methyl)-4-methyloxazolidin-2-one] | 4.3
Cc1cc(Nc2cc(C(F)(F)F)ccn2)nc(-c2cn(C3CCC(C(N)=O)C(C)(C)C3)nn2)c1 (single isomer, unassigned) [Example 1.4, 2,2-dimethyl-4-[4-(4-methyl-6-{[4-(trifluoromethyl)pyridin-2-yl]amino}pyridin-2-yl)-1H-1,2,3-triazol-1-yl]cyclohexanecarboxamide] | 3.8
Cc1cc(Nc2nccc(C(F)(F)F)n2)cc(-c2cn(C3COCC3O)nn2)c1 (single isomer, unassigned) [Example 4.5, 4-[4-(3-methyl-5-{[4-(trifluoromethyl)pyrimidin-2-yl]amino}phenyl)-1H-1,2,3-triazol-1-yl]tetrahydrofuran-3-ol] | 61.2
Cc1ccnc(Nc2cc(C)cc(-c3cn(C[C@@H](C)CO)nn3)n2)c1 [Example 5.15, (2R)-2-methyl-3-(4-{4-methyl-6-[(4-methylpyridin-2-yl)amino]pyridin-2-yl}-1H-1,2,3-triazol-1-yl)propan-1-ol] | 240
Cc1cc(Nc2cc(C(F)(F)F)ccn2)nc(-c2cn(CC(O)C(O)COc3ccccc3Cl)nn2)c1 (stereo not drawn) [Example 10.8, 1-(2-chlorophenoxy)-4-[4-(4-methyl-6-{[4-(trifluoromethyl)pyridin-2-yl]amino}pyridin-2-yl)-1H-1,2,3-triazol-1-yl]butane-2,3-diol] | 63.3
Cc1cc(Nc2cc(C(F)F)ccn2)nc(-c2cn(C(C)C(C)(O)CO)nn2)c1 (single isomer, unassigned) [Example 30.7, 3-[4-(6-{[4-(difluoromethyl)pyridin-2-yl]amino}-4-methylpyridin-2-yl)-1H-1,2,3-triazol-1-yl]-2-methylbutane-1,2-diol] | 1.4
Cc1cc(Nc2cc(C(F)(F)F)ccn2)nc(-c2nnc[nH]2)c1 [Example 16.2, 4-methyl-6-(4H-1,2,4-triazol-3-yl)-N-[4-(trifluoromethyl)pyridin-2-yl]pyridin-2-amine] | 328
Cc1cc(Nc2cc(C(F)(F)F)ccn2)nc(-c2cn(CCO)nn2)c1 [Example 5.91, 2-[4-(4-methyl-6-{[4-(trifluoromethyl)pyridin-2-yl]amino}pyridin-2-yl)-1H-1,2,3-triazol-1-yl]ethanol] | 8.3
Cc1cc(Nc2cc(C(F)(F)F)ccn2)nc(-c2cn(Cc3cnc(C)[nH]3)nn2)c1 [Example 5.104, 4-methyl-6-{1-[(2-methyl-1H-imidazol-5-yl)methyl]-1H-1,2,3-triazol-4-yl}-N-[4-(trifluoromethyl)pyridin-2-yl]pyridin-2-amine] | 3.2
